According to US7825253B2, “2-aminoquinoline derivatives” (Hoffmann-La Roche Inc., priority 2006, dated 2010):

These molecules were tested against T1, recombinant human 5-HT5A receptor (Homo sapiens, UniProt P47898) (assay: [3H]LSD radioligand binding assay). Conditions: not given.
T1 construct: expressed in transfected cells; host or cells: Human Embryonic Kidney-EBNA (HEK-EBNA) cells, transient cDNA expression; membranes
Protocol: A [^3H]LSD radioligand binding assay was used to determine the affinity of the compounds for the recombinant human 5-HT5A receptor, in membranes from transiently (cDNA) expressed 5-HT5A receptors in Human Embryonic Kidney-EBNA (HEK-EBNA) cells. Assay buffer consisted of Tris (50 mM) buffer containing 1 mM EGTA, 10 mM MgCl2 (pH 7.4) and 10 μM pargyline. The binding assay was carried out in 96-well-plates in the presence of [^3H]LSD (approximately 1 nM), approximately 2 μg/well of membrane protein, and 0.5 mg of Ysi-poly-l-lysine SPA beads in a final volume of 200 μl of buffer. Non-specific binding was defined using methiothepin 2 μM. Compounds were tested at 10 concentrations. All assays were conducted in duplicate and repeated at least two times. Assay plates were incubated for 120 min at room temperature before centrifugation. Bound ligand was determined using a Packard Topcount scintillation counter. IC50 values were calculated using a non-linear curve fitting program and Ki values calculated using the Cheng-Prussoff equation.

T1 sequence (P47898 whole entry): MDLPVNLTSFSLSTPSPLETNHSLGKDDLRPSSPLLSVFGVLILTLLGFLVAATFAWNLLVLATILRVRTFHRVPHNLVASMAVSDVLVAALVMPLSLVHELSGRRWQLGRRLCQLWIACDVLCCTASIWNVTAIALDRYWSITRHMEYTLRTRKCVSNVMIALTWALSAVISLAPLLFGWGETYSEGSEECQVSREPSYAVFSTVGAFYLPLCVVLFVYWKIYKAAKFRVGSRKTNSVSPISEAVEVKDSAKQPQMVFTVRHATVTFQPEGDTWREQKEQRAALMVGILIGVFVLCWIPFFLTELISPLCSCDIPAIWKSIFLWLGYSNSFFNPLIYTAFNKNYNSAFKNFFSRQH

| activity at the 5-HT5A receptor (in words) | Structure (SMILES) |
| --- | --- |
| more active | CC(Nc1cccc2nc(Nc3cccc4c3OC(C)(C)C4)ccc12)c1cc(F)cc(F)c1 (single isomer, unassigned; (+)) [Example 158, (+)-N5-[1-(3,5-Difluoro-phenyl)-ethyl]-N2-(2,2-dimethyl-2,3-dihydro-benzofuran-7-yl)-quinoline-2,5-diamine] |

Same assay, conditions: [3H]LSD approx. 1 nM; membranes from HEK-EBNA cells transiently expressing 5-HT5A; Ki from IC50 by Cheng-Prussoff

| Ki [nM] | Structure (SMILES) |
| --- | --- |
| 21.7 | CC1Cc2cccc(Nc3ccc4c(NS(=O)(=O)c5cc(F)cc(F)c5)cccc4n3)c2O1 (racemic) [Example 134, rac-3,5-Difluoro-N-[2-(2-methyl-2,3-dihydro-benzofuran-7-ylamino)-quinolin-5-yl]-benzenesulfonamide] |
| 17.1 | Cc1ccc(CNc2ccc3c(NC4CCSc5ccccc54)cccc3n2)o1 (racemic) [Example 135, rac-N2-(5-Methyl-furan-2-ylmethyl)-N5-thiochroman-4-yl-quinoline-2,5-diamine] |
| 37.1 | Cc1ccc(CNc2ccc3c(NC4CCOc5ccccc54)cccc3n2)o1 (racemic) [Example 142, rac-N5-Chroman-4-yl-N2-(5-methyl-furan-2-ylmethyl)-quinoline-2,5-diamine] |
| 18.2 | Cc1ccc(CNc2ccc3c(NC4CCS(=O)(=O)c5ccccc54)cccc3n2)o1 (racemic) [Example 143, rac-5-(1,1-Dioxo-1l6-thiochroman-4-yl)-N2-(5-methyl-furan-2-ylmethyl)-quinoline-2,5-diamine] |
| 15.4 | CC1(C)Cc2cccc(Nc3ccc4c(NC5CCS(=O)(=O)c6ccccc65)cccc4n3)c2O1 (racemic) [Example 144, rac-N2-(2,2-Dimethyl-2,3-dihydro-benzofuran-7-yl)-N5-(1,1-dioxo-1l6-thiochroman-4-yl)-quinoline-2,5-diamine] |
| 4.74 | CC(Nc1cccc2nc(Nc3cccc4c3OC(C)(C)C4)ccc12)c1cc(F)cc(F)c1 (racemic) [Example 151, rac-N5-[1-(3,5-Difluoro-phenyl)-ethyl]-N2-(2,2-dimethyl-2,3-dihydro-benzofuran-7-yl)-quinoline-2,5-diamine] |
| 15.8 | CC(Nc1cccc2nc(Nc3cccc4c3OC(C)(C)C4)ccc12)c1nccs1 (racemic) [Example 160, rac-N2-(2,2-Dimethyl-2,3-dihydro-benzofuran-7-yl)-N5-(1-thiazol-2-yl-ethyl)-quinoline-2,5-diamine] |
| 7.15 | CC(Nc1cccc2nc(Nc3cccc4c3OC(C)(C)C4)ccc12)c1cccnc1 (racemic) [Example 162, rac-N2-(2,2-Dimethyl-2,3-dihydro-benzofuran-7-yl)-N5-(1-pyridin-3-yl-ethyl)-quinoline-2,5-diamine] |
| 3.1 | CC(Nc1cccc2nc(Nc3cccc4c3OC(C)(C)C4)ccc12)c1cc(F)cc(F)c1 (single isomer, unassigned; (+)) [Example 158, (+)-N5-[1-(3,5-Difluoro-phenyl)-ethyl]-N2-(2,2-dimethyl-2,3-dihydro-benzofuran-7-yl)-quinoline-2,5-diamine] |
| 39.3 | COCc1cccc(CCc2cccc3nc(NCc4ccc(C)o4)ccc23)c1 [Example 33, {5-[2-(3-Methoxymethyl-phenyl)-ethyl]-quinolin-2-yl}-(5-methyl-furan-2-ylmethyl)-amine] |
| 12.4 | Cc1ccc(CNc2ccc3c(CCc4cccc(S(N)(=O)=O)c4)cccc3n2)o1 [Example 34, 3-(2-{2-[(5-Methyl-furan-2-ylmethyl)-amino]-quinolin-5-yl}-ethyl)-benzenesulfonamide] |
| 17 | Cc1ccc(CNc2ccc3c(NCc4cccc(S(N)(=O)=O)c4)cccc3n2)o1 [Example 35, 3-({2-[(5-Methyl-furan-2-ylmethyl)-amino]-quinolin-5-ylamino}-methyl)-benzenesulfonamide] |
| 49.5 | Cc1ccc(CNc2ccc3c(CNc4ccccn4)cccc3n2)o1 [Example 37, (5-Methyl-furan-2-ylmethyl)-[5-(pyridin-2-ylaminomethyl)-quinolin-2-yl]-amine] |

Continued, molecule first:

| Structure (SMILES) | Ki [nM] |
| --- | --- |
| COc1ccccc1CNc1ccc2c(NCc3cccnc3)cccc2n1 [Example 1, N2-(2-Methoxy-benzyl)-N5-pyridin-3-ylmethyl-quinoline-2,5-diamine] | 8.65 |
| COc1ccccc1CNc1ccc2c(CCc3ccccc3)cccc2n1 [Example 4, (2-Methoxy-benzyl)-(5-phenethyl-quinolin-2-yl)-amine] | 9.51 |
| COc1cccc(CNc2cccc3nc(NCc4ccccc4OC)ccc23)c1 [Example 5, N5-(3-Methoxy-benzyl)-N2-(2-methoxy-benzyl)-quinoline-2,5-diamine] | 9.7 |
| COc1ccccc1CNc1ccc2c(NCc3ccccc3OC)cccc2n1 [Example 6, N2,N5-Bis-(2-methoxy-benzyl)-quinoline-2,5-diamine] | 10.2 |
| COc1ccccc1CNc1ccc2c(NCc3ccccc3)cccc2n1 [Example 7, N5-Benzyl-N2-(2-methoxy-benzyl)-quinoline-2,5-diamine] | 7.57 |
| COc1ccccc1CNc1ccc2c(NCc3ccncc3)cccc2n1 [Example 9, N2-(2-Methoxy-benzyl)-N5-pyridin-4-ylmethyl-quinoline-2,5-diamine] | 34.5 |
| COc1ccccc1CNc1cccc2nc(NCc3ccc(C)o3)ccc12 [Example 13, N5-(2-Methoxy-benzyl)-N2-(5-methyl-furan-2-ylmethyl)-quinoline-2,5-diamine] | 15.3 |
| Cc1ccc(CNc2ccc3c(NCc4cccnc4)cccc3n2)o1 [Example 15, N2-(5-Methyl-furan-2-ylmethyl)-N5-pyridin-3-ylmethyl-quinoline-2,5-diamine] | 11.1 |
| COc1ccccc1CNc1ccc2c(CCc3cccnc3)cccc2n1 [Example 16, (2-Methoxy-benzyl)-[5-(2-pyridin-3-yl-ethyl)-quinolin-2-yl]-amine] | 32.6 |
| Cc1ccc(CNc2ccc3c(CCc4ccccc4)cccc3n2)o1 [Example 17, (5-Methyl-furan-2-ylmethyl)-(5-phenethyl-quinolin-2-yl)-amine] | 21.3 |
| Cc1ccc(CNc2ccc3c(NCc4ccc(F)cc4)cccc3n2)o1 [Example 20, N5-(4-Fluoro-benzyl)-N2-(5-methyl-furan-2-ylmethyl)-quinoline-2,5-diamine] | 25.4 |
| Cc1ccc(CNc2ccc3c(CNc4cccnc4)cccc3n2)o1 [Example 21, (5-Methyl-furan-2-ylmethyl)-[5-(pyridin-3-ylaminomethyl)-quinolin-2-yl]-amine] | 35.8 |
| Cc1ccc(CNc2ccc3c(CNc4ccccc4)cccc3n2)o1 [Example 22, (5-Methyl-furan-2-ylmethyl)-(5-phenylaminomethyl-quinolin-2-yl)-amine] | 23.5 |
| COc1ccccc1CNc1ccc2c(CCc3cccc(CO)c3)cccc2n1 [Example 23, (3-{2-[2-(2-Methoxy-benzylamino)-quinolin-5-yl]-ethyl}-phenyl)-methanol] | 18.4 |
| Cc1ccc(CNc2ccc3c(NCc4ccccn4)cccc3n2)o1 [Example 26, N2-(5-Methyl-furan-2-ylmethyl)-N5-pyridin-2-ylmethyl-quinoline-2,5-diamine] | 21 |
| COc1ncccc1CNc1cccc2nc(NCc3ccc(C)o3)ccc12 [Example 27, N5-(2-Methoxy-pyridin-3-ylmethyl)-N2-(5-methyl-furan-2-ylmethyl)-quinoline-2,5-diamine] | 43 |
| COCCOc1cccc(CNc2cccc3nc(NCc4ccc(C)o4)ccc23)c1 [Example 28, N5-[3-(2-Methoxy-ethoxy)-benzyl]-N2-(5-methyl-furan-2-ylmethyl)-quinoline-2,5-diamine] | 49.4 |
| Cc1cccc(CNc2cccc3nc(NCc4ccc(C)o4)ccc23)n1 [Example 29, N2-(5-Methyl-furan-2-ylmethyl)-N5-(6-methyl-pyridin-2-ylmethyl)-quinoline-2,5-diamine] | 17.5 |
